Measurements published in ChEMBL document CHEMBL1811895, “Regioselective synthesis of water-soluble monophosphate derivatives of combretastatin A-1” (J Nat Prod, 2011).

Assays:
NCI-H460 = assay: Cytotoxicity against human NCI-H460 cells by SRB assay; type: functional
[1] = Inhibition of tubulin polymerization in bovine brain after 20 mins by spectrophotometry; parameters: species or system Bos taurus
DU-145 = assay: Cytotoxicity against human DU145 cells by SRB assay; type: functional
SK-OV-3 = assay: Cytotoxicity against human SKOV3 cells by SRB assay; type: functional

Structure (SMILES) | GI50 (NCI-H460) | IC50 [1] | GI50 (DU-145) | GI50 (SK-OV-3)
COc1ccc(/C=C\c2cc(OC)c(OC)c(OC)c2)c(OP(=O)(O)O)c1O | 3.56 nM | > 40000 nM | 2.77 nM | 1.64 nM
COc1ccc(/C=C/c2cc(OC)c(OC)c(OC)c2)c(OP(=O)(O)O)c1O | 1550 nM | – | 2130 nM | 465 nM
COc1cc(/C=C\c2ccc(OC)c(OP(=O)(O)O)c2O)cc(OC)c1OC | 33.4 nM | > 40000 nM | 15.5 nM | 2.6 nM
COc1cc(/C=C/c2ccc(OC)c(OP(=O)(O)O)c2O)cc(OC)c1OC | 336 nM | – | 520 nM | 681 nM
COc1cc(/C=C\c2ccc(OC)c(OP(=O)(O)O)c2OP(=O)(O)O)cc(OC)c1OC | 13.3 nM | > 40000 nM | 2.87 nM | 1.03 nM
COc1ccc(/C=C/c2cc(OC)c(OC)c(OC)c2)c(O)c1O | 1320 nM | 11000 nM | 2140 nM | 2270 nM
COc1ccc(/C=C\c2cc(OC)c(OC)c(OC)c2)c(O)c1O [COMBRETASTATIN A-1] | 15.3 nM | 1900 nM | 32.6 nM | 38.4 nM
